Experiments:
[1] = target: GGTase I (K-Ras4B as substrate) (Homo sapiens, UniProt P49354+P53609); assay: GGTase I filter-binding assay, K-Ras4B as substrate (library screens); type: biochemical; conditions: compound 50 μM; DMSO = 100%; smaller = better inhibition; 50 µM
Experimental: (§1) The pilot library was screened for inhibitors of protein geranylgeranyltransferase type I. Protein prenyltransferase assays were carried out by using filter binding. Two different substrates, RhoA and K-Ras4B, were used for the assay. RhoA ends with the CaaL motif and is an exclusive substrate for GGTase I, while K-Ras4B ends with the CaaX motif and is modified by both GGTase I and FTase.
(§2) In the assay, a fixed concentration of 100 μM was used and the results are plotted for the inhibition of RhoA (vertical axis) as well as for K-Ras4B (horizontal axis). […] They are 2,6-diaryl-N-tosyl-1,2,5,6-tetrahydropyridine-3-carboxylic acids, except P2-D5 that is missing an aryl substituent at C2.
The % activity of GGTase I was determined as follows: a working solution that contained each compound in DMSO at the concentration of 1 mM was prepared. The working solution was added to GGTase I reaction mixture so that the final concentration of the compound is 50 μM. GGTase I activity was assayed by incubating [^3H]GGPP with K-Ras4B or RhoA protein in the presence of GGTase I and examining radioactivity incorporated into the substrate protein by spotting onto a filter paper. After washing with TCA, ethanol and acetone, the radioactivity retained on the filter was determined by the use of a scintillation counter. GGTase I activity in the presence of DMSO was taken as a 100% value and the activity in the presence of the compound was shown as percent activity compared with the 100% value. […] For 6-aryl-4-mercapto-N-sulfonyl-piperidine-3-carboxylic acid 11 the 4-mercapto substituent appeared critical to endowing GGTase inhibitory activity. […] 4-Chlorobenzylthio substituent was the next best; 12 compounds out of 21 containing the 4-chlorobenzylthio moiety were active. 4-Benzylthio substituent was also good; 7 piperidines out of 21 bearing 4-benzylthio group were active. […] 19 imines (C15>C12=C41>C40>C01=C11>C05=C10=C30=C35=C37=C38>C02, C03, C04, C06, C39=C43) out of 21 appeared in the GGTIs. […] This corresponds to 47 6-aryl-4-mercapto-N-sulfonyl-piperidine-3-carboxylic acids out of 357 compounds.
A collection of 138 heterocycles was screened for their ability to inhibit the activity of human GGTase-I to geranylgeranylate K-Ras4B or RhoA. Purified GGTase-I was incubated with its substrate protein K-Ras4B or RhoA, [^3H]GGPP, and the 138 compounds. After 30 min, the degree of incorporation of tritiated geranylgeranyl groups was measured using a scintillation counter.

[2] = target: GGTase I (RhoA as substrate) (Homo sapiens, UniProt P49354+P53609); assay: GGTase I filter-binding assay, RhoA as substrate (library screens); type: biochemical; conditions: compound 50 μM, DMSO = 100%, smaller = better inhibition
Experimental: as §1, §2
The % activity of GGTase I was determined as follows: a working solution that contained each compound in DMSO at the concentration of 1 mM was prepared. The working solution was added to GGTase I reaction mixture so that the final concentration of the compound is 50 μM. GGTase I activity was assayed by incubating [^3H]GGPP with K-Ras4B or RhoA protein in the presence of GGTase I and examining radioactivity incorporated into the substrate protein by spotting onto a filter paper. After washing with TCA, ethanol and acetone, the radioactivity retained on the filter was determined by the use of a scintillation counter. GGTase I activity in the presence of DMSO was taken as a 100% value and the activity in the presence of the compound was shown as percent activity compared with the 100% value. […] For 6-aryl-4-mercapto-N-sulfonyl-piperidine-3-carboxylic acid 11 the 4-mercapto substituent appeared critical to endowing GGTase inhibitory activity. […] 4-Chlorobenzylthio substituent was the next best; 12 compounds out of 21 containing the 4-chlorobenzylthio moiety were active. […]
A collection of 138 heterocycles was screened for their ability to inhibit the activity of human GGTase-I to geranylgeranylate K-Ras4B or RhoA. […] After 30 min, the degree of incorporation of tritiated geranylgeranyl groups was measured using a scintillation counter.

Cc1ccccc1S(=O)(=O)N1C(c2ccc(Cl)cc2)CC=C(C(=O)O)[C@@H]1c1ccccc1 (some centres unmarked) [drawing 42]
% activity of GGTase I for K-Ras4B in the presence of the compound [1]: 5.4%
% activity of GGTase I for RhoA in the presence of the compound [2]: 3.0%

From US8815935B2, “Inhibitors of protein prenyltransferases” (The Regents of the University of California, priority 2008, dated 2014)
